US20230085307A1, “PYRIDAZINONE COMPOUND AND HERBICIDE” (NISSAN CHEMICAL CORPORATION, priority 2019, published 2023)

Legend:
late watergrass = assay: Test Example 1: herbicidal activity, application before weed generation under submerged conditions (Table 16, symbol A); format: in vivo, late watergrass (Echinochloa oryzicola); conditions: 320 g/ha applied herbicide
Summary of the method: (§1)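 Submerged Wagner pots (alluvial soil, 4 cm water) sown with weed seeds and planted with 2.5-leaf rice seedlings; emulsifiable concentrate diluted in water applied to water surface on sowing day. Held in greenhouse at 25-30 °C; injury scored 0-5 by herbicidal rate after three weeks.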

Japanese bulrush = assay: Test Example 1: herbicidal activity, application before weed generation under submerged conditions (Table 16, symbol B); format: in vivo, Japanese bulrush (Schoenoplectus juncoides); conditions: 320 g/ha applied herbicide
Summary of the method: as §1

oval-leafed pondweed = assay: Test Example 1: herbicidal activity, application before weed generation under submerged conditions (Table 16, symbol C); format: in vivo, oval-leafed pondweed (Monochoria vaginalis); conditions: 320 g/ha applied herbicide
Summary of the method: as §1

barnyard grass [1] = assay: Test Example 3: herbicidal effect by foliage application, Wagner pot (Table 18, symbol H); format: in vivo, barnyard grass (Echinochloa crus-galli); conditions: amount of applied herbicide 320 g/ha
Summary of the method: (§2)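 Plants were sown in alluvial soil held under 0.1–0.5 cm standing water and grown 14 days in a greenhouse at 25–30 °C. An emulsifiable formulation, water-diluted to the set dose, was then sprayed onto the foliage, and effects were scored three weeks later using previously defined criteria.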

Chinese sprangletop = assay: Test Example 3: herbicidal effect by foliage application, Wagner pot (Table 18, symbol D); format: in vivo, chinese sprangletop (Leptochloa chinensis); conditions: amount of applied herbicide 320 g/ha
Summary of the method: as §2

rice flat sedge = assay: Test Example 3: herbicidal effect by foliage application, Wagner pot (Table 18, symbol E); format: in vivo, rice flat sedge (Cyperus iria); conditions: amount of applied herbicide 320 g/ha
Summary of the method: as §2

southern crabgrass [2] = assay: Test Example 4: herbicidal effect by soil treatment (Table 19, symbol F); format: in vivo, southern crabgrass (Digitaria ciliaris); conditions: amount of applied herbicide 320 g/ha
Summary of the method: (§3)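 Three weeks of greenhouse growth at 25° C. to 30° C. followed a uniform surface spray of water-diluted emulsion at a predetermined herbicide amount. Seeds had been sown beforehand under about 1.5 cm of sterilized diluvial soil. Grading followed criteria set out in an earlier test.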

green foxtail [3] = assay: Test Example 4: herbicidal effect by soil treatment (Table 19, symbol G); format: in vivo, green foxtail (Setaria viridis); conditions: amount of applied herbicide 320 g/ha
Summary of the method: as §3

barnyard grass [4] = assay: Test Example 4: herbicidal effect by soil treatment (Table 19, symbol H); format: in vivo, barnyard grass (Echinochloa crus-galli); conditions: amount of applied herbicide 320 g/ha
Summary of the method: as §3

wild oat [5] = assay: Test Example 4: herbicidal effect by soil treatment (Table 19, symbol I); format: in vivo, wild oat (Avena fatua); conditions: amount of applied herbicide 320 g/ha
Summary of the method: as §3

blackgrass [6] = assay: Test Example 4: herbicidal effect by soil treatment (Table 19, symbol J); format: in vivo, blackgrass (Alopecurus myosuroides); conditions: amount of applied herbicide 320 g/ha
Summary of the method: as §3

Italian ryegrass [7] = assay: Test Example 4: herbicidal effect by soil treatment (Table 19, symbol K); format: in vivo, Italian ryegrass (Lolium multiflorum); conditions: amount of applied herbicide 320 g/ha
Summary of the method: as §3

windgrass [8] = assay: Test Example 4: herbicidal effect by soil treatment (Table 19, symbol L); format: in vivo, windgrass (Apera spica-venti); conditions: amount of applied herbicide 320 g/ha
Summary of the method: as §3

velvetleaf [9] = assay: Test Example 4: herbicidal effect by soil treatment (Table 19, symbol M); format: in vivo, velvetleaf (Abutilon theophrasti); conditions: amount of applied herbicide 320 g/ha
Summary of the method: as §3

redroot pigweed [10] = assay: Test Example 4: herbicidal effect by soil treatment (Table 19, symbol N); format: in vivo, redroot pigweed (Amaranthus retroflexus); conditions: amount of applied herbicide 320 g/ha
Summary of the method: as §3

lambsquarters [11] = assay: Test Example 4: herbicidal effect by soil treatment (Table 19, symbol O); format: in vivo, lambsquarters (Chenopodium album); conditions: amount of applied herbicide 320 g/ha
Summary of the method: as §3

chickweed [12] = assay: Test Example 4: herbicidal effect by soil treatment (Table 19, symbol P); format: in vivo, common chickweed (Stellaria media); conditions: amount of applied herbicide 320 g/ha
Summary of the method: as §3

persian speedwell [13] = assay: Test Example 4: herbicidal effect by soil treatment (Table 19, symbol R); format: in vivo, Persian speedwell (Veronica persica); conditions: amount of applied herbicide 320 g/ha
Summary of the method: as §3

southern crabgrass [14] = assay: Test Example 5: herbicidal effect by foliage application, plastic box (Table 20, symbol F); format: in vivo, southern crabgrass (Digitaria ciliaris); conditions: foliage application, 320 g/ha, evaluated three weeks after application
Summary of the method: (§4)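 Plants sown in sterilized diluvial soil and grown 14 days in a greenhouse at 25° C to 30° C, then sprayed on the foliage with the compound's emulsion diluted in water to a predetermined herbicide amount. Injury to weeds and crops scored three weeks after application on a visual rating scale.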

green foxtail [15] = assay: Test Example 5: herbicidal effect by foliage application, plastic box (Table 20, symbol G); format: in vivo, green foxtail (Setaria viridis); conditions: foliage application, 320 g/ha, evaluated three weeks after application
Summary of the method: as §4

barnyard grass [16] = assay: Test Example 5: herbicidal effect by foliage application, plastic box (Table 20, symbol H); format: in vivo, barnyard grass (Echinochloa crus-galli); conditions: foliage application, 320 g/ha, evaluated three weeks after application
Summary of the method: as §4

wild oat [17] = assay: Test Example 5: herbicidal effect by foliage application, plastic box (Table 20, symbol I); format: in vivo, wild oat (Avena fatua); conditions: foliage application, 320 g/ha, evaluated three weeks after application
Summary of the method: as §4

blackgrass [18] = assay: Test Example 5: herbicidal effect by foliage application, plastic box (Table 20, symbol J); format: in vivo, blackgrass (Alopecurus myosuroides); conditions: foliage application, 320 g/ha, evaluated three weeks after application
Summary of the method: as §4

Italian ryegrass [19] = assay: Test Example 5: herbicidal effect by foliage application, plastic box (Table 20, symbol K); format: in vivo, Italian ryegrass (Lolium multiflorum); conditions: foliage application, 320 g/ha, evaluated three weeks after application
Summary of the method: as §4

windgrass [20] = assay: Test Example 5: herbicidal effect by foliage application, plastic box (Table 20, symbol L); format: in vivo, windgrass (Apera spica-venti); conditions: foliage application, 320 g/ha, evaluated three weeks after application
Summary of the method: as §4

velvetleaf [21] = assay: Test Example 5: herbicidal effect by foliage application, plastic box (Table 20, symbol M); format: in vivo, velvetleaf (Abutilon theophrasti); conditions: foliage application, 320 g/ha, evaluated three weeks after application
Summary of the method: as §4

redroot pigweed [22] = assay: Test Example 5: herbicidal effect by foliage application, plastic box (Table 20, symbol N); format: in vivo, redroot pigweed (Amaranthus retroflexus); conditions: foliage application, 320 g/ha, evaluated three weeks after application
Summary of the method: as §4

lambsquarters [23] = assay: Test Example 5: herbicidal effect by foliage application, plastic box (Table 20, symbol O); format: in vivo, lambsquarters (Chenopodium album); conditions: foliage application, 320 g/ha, evaluated three weeks after application
Summary of the method: as §4

chickweed [24] = assay: Test Example 5: herbicidal effect by foliage application, plastic box (Table 20, symbol P); format: in vivo, common chickweed (Stellaria media); conditions: foliage application, 320 g/ha, evaluated three weeks after application
Summary of the method: as §4

persian speedwell [25] = assay: Test Example 5: herbicidal effect by foliage application, plastic box (Table 20, symbol R); format: in vivo, Persian speedwell (Veronica persica); conditions: foliage application, 320 g/ha, evaluated three weeks after application
Summary of the method: as §4

For COc1ccccc1-c1sc2ccc(C#N)cc2c1-c1c(O)c(C)nn(C)c1=O [2-190], the “Herbicidal effect on A: late watergrass (grade 0-5)” value (late watergrass) was 3 (Herbicidal rate of 40% or more and less than 70%), the “Herbicidal effect on B: Japanese bulrush (grade 0-5)” value (Japanese bulrush) was 0 (Herbicidal rate of 5% or less (almost no effect)) and the “Herbicidal effect on C: oval-leafed pondweed (grade 0-5)” value (oval-leafed pondweed) was 0 (Herbicidal rate of 5% or less (almost no effect)). The “herbicidal effect on H: barnyard grass” value (barnyard grass [1]) was 2 (Herbicidal rate of 20% or more and less than 40%), the “herbicidal effect on D: Chinese sprangletop” value (Chinese sprangletop) was 2 (Herbicidal rate of 20% or more and less than 40%) and the “herbicidal effect on E: rice flat sedge” value (rice flat sedge) was 4 (Herbicidal rate of 70% or more and less than 90%). The “F: southern crabgrass, herbicidal effect rating” value (southern crabgrass [2]) was 0 (Herbicidal rate of 5% or less (almost no effect)), the “G: green foxtail, herbicidal effect rating” value (green foxtail [3]) was 0 (Herbicidal rate of 5% or less (almost no effect)) and the “H: barnyard grass, herbicidal effect rating” value (barnyard grass [4]) was 0 (Herbicidal rate of 5% or less (almost no effect)). The “I: wild oat, herbicidal effect rating” value (wild oat [5]) was 0 (Herbicidal rate of 5% or less (almost no effect)), the “J: blackgrass, herbicidal effect rating” value (blackgrass [6]) was 0 (Herbicidal rate of 5% or less (almost no effect)) and the “K: Italian ryegrass, herbicidal effect rating” value (Italian ryegrass [7]) was 0 (Herbicidal rate of 5% or less (almost no effect)). For the same molecule, the “L: windgrass, herbicidal effect rating” value (windgrass [8]) was 0 (Herbicidal rate of 5% or less (almost no effect)), the “M: velvetleaf, herbicidal effect rating” value (velvetleaf [9]) was 0 (Herbicidal rate of 5% or less (almost no effect)) and the “N: redroot pigweed, herbicidal effect rating” value (redroot pigweed [10]) was 3 (Herbicidal rate of 40% or more and less than 70%). The “O: lambsquarters, herbicidal effect rating” value (lambsquarters [11]) was 5 (Herbicidal rate of 90% or more (almost completely withered)), the “P: chickweed, herbicidal effect rating” value (chickweed [12]) was 0 (Herbicidal rate of 5% or less (almost no effect)) and the “R: persian speedwell, herbicidal effect rating” value (persian speedwell [13]) was 0 (Herbicidal rate of 5% or less (almost no effect)). The “herbicidal effect on F: southern crabgrass (criteria 0-5)” value (southern crabgrass [14]) was 0 (Herbicidal rate of 5% or less (almost no effect)), the “herbicidal effect on G: green foxtail (criteria 0-5)” value (green foxtail [15]) was 0 (Herbicidal rate of 5% or less (almost no effect)) and the “herbicidal effect on H: barnyard grass (criteria 0-5)” value (barnyard grass [16]) was 0 (Herbicidal rate of 5% or less (almost no effect)). For the same molecule, the “herbicidal effect on I: wild oat (criteria 0-5)” value (wild oat [17]) was 0 (Herbicidal rate of 5% or less (almost no effect)), the “herbicidal effect on J: blackgrass (criteria 0-5)” value (blackgrass [18]) was 0 (Herbicidal rate of 5% or less (almost no effect)) and the “herbicidal effect on K: Italian ryegrass (criteria 0-5)” value (Italian ryegrass [19]) was 0 (Herbicidal rate of 5% or less (almost no effect)). The “herbicidal effect on L: windgrass (criteria 0-5)” value (windgrass [20]) was 0 (Herbicidal rate of 5% or less (almost no effect)), the “herbicidal effect on M: velvetleaf (criteria 0-5)” value (velvetleaf [21]) was 3 (Herbicidal rate of 40% or more and less than 70%) and the “herbicidal effect on N: redroot pigweed (criteria 0-5)” value (redroot pigweed [22]) was 3 (Herbicidal rate of 40% or more and less than 70%). For the same molecule, the “herbicidal effect on O: lambsquarters (criteria 0-5)” value (lambsquarters [23]) was 2 (Herbicidal rate of 20% or more and less than 40%), the “herbicidal effect on P: chickweed (criteria 0-5)” value (chickweed [24]) was 5 (Herbicidal rate of 90% or more (almost completely withered)) and the “herbicidal effect on R: persian speedwell (criteria 0-5)” value (persian speedwell [25]) was 5 (Herbicidal rate of 90% or more (almost completely withered)).
